pKd: −log10 of the molar value.
Assays:
JMJD3 = JMJD3 (Homo sapiens, UniProt O15054); assay: JMJD3 binding assay (Kd, affinity beads, qPCR readout); conditions: 11-point 3-fold dilution series, 0.9% DMSO, room temperature 1 hour; read-out: JMJD3 Affinity (binding constant, Kd)
Method: Test compounds were prepared as 111X stocks in 100% DMSO. Kd values are determined using an 11-point 3-fold compound dilution series with three DMSO control points. All compounds for Kd measurements were distributed by acoustic transfer (non-contact dispensing) in 100% DMSO. The compounds were then diluted directly into the assays such that the final concentration of DMSO was 0.9%. All reactions were performed in polypropylene 384-well plate. Each was a final volume of 0.02 ml. The assay plates were incubated at room temperature with shaking for 1 hour and the affinity beads were washed with wash buffer (lx PBS, 0.05% Tween 20). The beads were then re-suspended in elution buffer (lx PBS, 0.05% Tween 20, 0.5 μM non-biotinylated affinity ligand) and incubated at room temperature with shaking for 30 minutes. The kinase concentration in the eluates was measured by qPCR. Binding constants are calculated with a standard dose-response curve using the Hill equation:
The Hill Slope was set to −1. Curves were fitted using a non-linear least square fit with the Levenberg-Marquardt algorithm. The binding data is summarized in Table 2 where A is less than 100 nM, B is 100 to 500 nM, and C is greater than 500 nM.

THP-1 human monocytes [1] = assay: TNF-alpha ELISA (Quantikine) in LPS-treated THP-1 cells; assay type: cell-based; conditions: 1 μM, 4 hrs before LPS 50 ng/ml; PMA 25 nM; ELISA of supernatants; FIG. 4A-C, p<0.05 / p<0.01
Method: THP-1 cells were grown to confluence and plated in 6-well plates. PMA (25 nM) was added to the medium and replaced with non-PMA containing medium 24 hrs later. ATH compounds (1 μM) or vehicle (0.1% DMSO) were added and allowed to incubate. After 4 hrs LPS (50 ng/ml) was added without replacement of the medium and supernatants were collected after 4 and […]. Media were placed on ice for cytokine detection using ELISA (Quantikine, R&D Systems).
JMJD3 inhibitors Compound 89, Compound 91 (FIG. 4A, p<005), Compound 97, Compound 92, Compound 93 (FIG. 4B, p<0.01), and Compound 94 (FIG. 4C, p<0.01) show suppression of TNF-alpha (TNFA) expression after LPS (lipopolysaccharide) treatment, in THP-1 human monocytes (FIG. 4A-C, p<0.05 for both).

THP-1 human monocytes [2] = assay: Cellular assay for anti-inflammatory properties: cytokine ELISA multiplex in LPS-stimulated PMA-differentiated THP-1 macrophages; assay type: cell-based; conditions: 1 μM, 4 hours before 100 ng/mL LPS for 4 or 24 hours; cytokine protein in media vs LPS+PMA only
Method: The anti-inflammatory properties of five JMJD3 inhibitors (99, 92, 93, 98, and 95, in no particularly order) were evaluated in an immune cellular assay targeting key pro-inflammatory cytokines involved in the pathogenesis of multiple autoimmune disease.
Specifically, THP-1 human monocytes were grown in 6-well plates (RPMI 1640+10% FBS+1% P/S). After washing with PBS the THP-1 cells were differentiated into macrophages using 20 nM of phorbol 12-myristate 13-acetate (PMA) for 24 hrs. 99, 92, 93, 98, and 95) (1 μM) were added into the macrophages, which are incubated for 4 hours before the addition of 100 ng/mL lipopolysaccharide (LPS) for either 4 or 24 hours. Next, the macrophages are collected via centrifugation at 1.2K rpm for 5 min and use their media to evaluate cytokine protein levels by using the Bio-rad Cytokine ELISA multiplex assay (cat. No M5000031YV). The supernatants from macrophages treated only with only LPS+PMA were collected and used as negative controls.

Naïve CD4+ T human cells = assay: Cellular assay for FoxP3 induction activity (qPCR of FoxP3 mRNA); assay type: cell-based; conditions: CD4+ T cells activated with anti-CD3, IL-2 and TGF-β for 5 days; FoxP3 mRNA by qPCR on day 5; FIG. 3
Method: CD4+CD25+FOXP3+ regulatory T cells (Tregs) suppress pro-inflammatory cells and signals and are critical mediators of tolerance, inhibiting excessive inflammation and autoimmunity. Also, treatment of CD4+ T cells with interleukin 2 (IL-2) and transforming growth factor beta (TGF-β) signaling are important for FOXP3 induction and Treg formation.
Naïve CD4+ T human cells (cat. no 2W-200, Lonza) were cultured and activated with artificial antigen-presenting cells and soluble anti-CD3 (100 ng/ml) in the presence of IL-2 (300 U/ml) and TGF-β (10 ng/ml) for 5 days. On day 3, cells were transfected with an anti-sense RNA against JMJD3 (cat. No 1299001, Thermo) using Lipofectamine 2000 (cat. No 11668027, Thermo). On day 5, RNA was extracted and qPCR analysis was performed to evaluate FoxP3 mRNA levels by using the following primers: F: 5′-TCCACAACATGCGACCCCCTTTCA-3′ and R: 5′-ACAGCCCCCTTCTCGCTCTCCA-3′ having a 217 bp product. All JMJD3 inhibitors (99, 92, 93, 98, and 95) in CD4+ T cells induced 7-fold FoxP3 expression levels, thus moving towards differentiation and formation of Tregs. […] Thus, genetic or pharmacological inhibition of […] will result into FoxP3 activation and induction of Treg formation. Based on this evidence, JMJD3 inhibitors (99, 92, 93, 98, and 95)) could be used in autoimmune diseases where T-regulatory cells have therapeutic potential. There is increasing evidence and literature derived from human clinical studies (Arellano B et al., Regulatory T Cell-based Therapies for Autoimmunity, Discov Med, 22:73-80, 2016).

Chain of JMJD3 (O15054 whole entry, species assumed): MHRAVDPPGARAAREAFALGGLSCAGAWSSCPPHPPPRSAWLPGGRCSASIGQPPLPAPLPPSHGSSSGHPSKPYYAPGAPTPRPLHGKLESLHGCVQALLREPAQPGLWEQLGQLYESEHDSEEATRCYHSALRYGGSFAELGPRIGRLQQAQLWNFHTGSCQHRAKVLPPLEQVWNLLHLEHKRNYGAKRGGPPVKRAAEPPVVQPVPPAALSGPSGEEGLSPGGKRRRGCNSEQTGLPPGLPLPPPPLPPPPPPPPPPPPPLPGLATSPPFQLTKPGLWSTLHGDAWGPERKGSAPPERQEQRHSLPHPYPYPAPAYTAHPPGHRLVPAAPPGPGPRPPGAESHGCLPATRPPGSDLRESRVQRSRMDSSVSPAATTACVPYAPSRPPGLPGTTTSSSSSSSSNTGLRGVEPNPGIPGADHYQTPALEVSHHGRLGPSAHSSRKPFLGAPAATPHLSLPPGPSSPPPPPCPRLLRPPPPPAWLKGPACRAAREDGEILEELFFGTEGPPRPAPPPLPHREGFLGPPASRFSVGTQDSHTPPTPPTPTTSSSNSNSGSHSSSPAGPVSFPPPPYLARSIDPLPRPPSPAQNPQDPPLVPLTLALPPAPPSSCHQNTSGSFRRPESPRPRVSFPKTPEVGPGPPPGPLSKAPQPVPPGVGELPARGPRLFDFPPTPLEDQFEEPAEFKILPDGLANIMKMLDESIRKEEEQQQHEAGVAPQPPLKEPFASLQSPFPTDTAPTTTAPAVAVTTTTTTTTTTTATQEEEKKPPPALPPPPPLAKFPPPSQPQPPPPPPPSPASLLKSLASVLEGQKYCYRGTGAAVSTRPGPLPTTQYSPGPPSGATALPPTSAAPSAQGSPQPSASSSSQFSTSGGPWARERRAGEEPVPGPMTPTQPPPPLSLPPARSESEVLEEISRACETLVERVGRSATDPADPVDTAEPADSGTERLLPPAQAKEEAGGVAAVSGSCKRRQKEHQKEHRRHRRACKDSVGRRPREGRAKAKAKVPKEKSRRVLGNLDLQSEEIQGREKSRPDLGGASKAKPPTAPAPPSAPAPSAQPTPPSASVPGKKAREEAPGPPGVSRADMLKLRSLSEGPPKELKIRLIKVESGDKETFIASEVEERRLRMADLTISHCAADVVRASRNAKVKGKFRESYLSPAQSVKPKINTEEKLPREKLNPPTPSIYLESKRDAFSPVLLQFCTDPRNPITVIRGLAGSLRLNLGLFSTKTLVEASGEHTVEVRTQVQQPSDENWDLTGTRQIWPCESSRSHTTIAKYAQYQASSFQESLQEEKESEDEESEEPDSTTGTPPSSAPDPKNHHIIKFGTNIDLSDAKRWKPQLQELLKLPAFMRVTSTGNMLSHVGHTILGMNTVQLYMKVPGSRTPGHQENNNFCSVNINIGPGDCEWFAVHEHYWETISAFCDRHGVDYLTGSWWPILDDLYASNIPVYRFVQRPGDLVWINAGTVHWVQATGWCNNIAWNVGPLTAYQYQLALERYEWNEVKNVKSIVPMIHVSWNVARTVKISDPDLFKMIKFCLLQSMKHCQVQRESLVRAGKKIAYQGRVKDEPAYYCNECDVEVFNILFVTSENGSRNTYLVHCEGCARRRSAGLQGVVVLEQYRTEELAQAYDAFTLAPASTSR

Q: `CCOC(=O)CCNc1nc(N2CCc3ccccc3CC2)nc(-n2cccn2)n1` [Compound 1, Ethyl 3-((4-(1H-pyrazol-1-yl)-6-(1,2,4,5-tetrahydro-3H-benzo[d]azepin-3-yl)-1,3,5-triazin-2-yl)amino)propanoate] was tested. Which pKd (JMJD3) did it give?
A: > 7.00

Q: With `CCOC(=O)CCNc1nc(-n2cccn2)nc(-n2cccn2)n1` [Compound 2, Ethyl 3-((4,6-di(1H-pyrazol-1-yl)-1,3,5-triazin-2-yl)amino)propanoate] as the compound, how does the pKd (JMJD3) read?
A: 6.30 to 7.00

Q: `CCOC(=O)CCNc1nc(-n2cccn2)nc(-n2ccc3ccccc32)n1` [Compound 6, Ethyl 3-((4-(1H-indol-1-yl)-6-(1H-pyrazol-1-yl)-1,3,5-triazin-2-yl)amino)propanoate] was tested. Which pKd (JMJD3) did it give?
A: > 7.00

Q: `CCOC(=O)CCNc1nc(-c2cc(F)cc(F)c2)nc(-n2cccn2)n1` [Compound 8, Ethyl 3-((4-(3,5-difluorophenyl)-6-(1H-pyrazol-1-yl)-1,3,5-triazin-2-yl)amino)propanoate] was tested. Which pKd (JMJD3) did it give?
A: > 7.00

Q: `c1ccc2c(c1)ccn2-c1nc(N2CCNC3(COC3)C2)nc(-n2cccn2)n1` [Compound 60, 8-(4-(1H-Indol-1-yl)-6-(1H-pyrazol-1-yl)-1,3,5-triazin-2-yl)-2-oxa-5,8-diazaspiro[3.5]nonane] was tested. Which pKd (JMJD3) did it give?
A: > 7.00

Q: `CN1CCN(c2nc(-c3cc(F)cc(F)c3)nc(-n3cccn3)n2)CC1` [Compound 80, 2-(3,5-Difluorophenyl)-4-(4-methylpiperazin-1-yl)-6-(1H-pyrazol-1-yl)-1,3,5-triazine] was tested. Which pKd (JMJD3) did it give?
A: 6.30 to 7.00

Q: What does the source list for `COCCNc1nc(-n2cccn2)nc(-n2ccc3ccccc32)n1` [Compound 89, 4-(1H-indol-1-yl)-N-(2-methoxyethyl)-6-(1H-pyrazol-1-yl)-1,3,5-triazin-2-amine]?
A: pKd (JMJD3): > 7.00; suppression of TNF-alpha (TNFA) expression after LPS treatment (THP-1 human monocytes [1]): suppression

Q: With `c1ccc2c(c1)ccn2-c1nc(N2CCNCC2)nc(-n2cccn2)n1` [Compound 90, 1-(4-(Piperazin-1-yl)-6-(1H-pyrazol-1-yl)-1,3,5-triazin-2-yl)-1H-indole] as the compound, how does the pKd (JMJD3) read?
A: 6.30 to 7.00

Q: How did the pKd (JMJD3) turn out when `NC(=O)CCNc1nc(-n2cccn2)nc(-n2ccc3ccccc32)n1` [Compound 91, 3-((4-(1H-Indol-1-yl)-6-(1H-pyrazol-1-yl)-1,3,5-triazin-2-yl)amino)propanamide] was run?
A: 6.30 to 7.00

Q: And the “suppression of TNF-alpha (TNFA) expression after LPS treatment” value (shortened to “suppression … after LPS treatment”) (THP-1 human monocytes [1])?
A: suppression

Q: `Fc1cc(F)cc(-c2nc(N3CCOCC3)nc(-n3cccn3)n2)c1` [Compound 92, 4-(4-(3,5-Difluorophenyl)-6-(1H-pyrazol-1-yl)-1,3,5-triazin-2-yl)morpholine] was tested. Which pKd (JMJD3) did it give?
A: 6.30 to 7.00

Q: What about the “suppression of TNF-alpha (TNFA)” value (THP-1 human monocytes [2]) of the same compound?
A: suppression

Q: What about the “suppression of interleukin 1beta (IL1B)” value (THP-1 human monocytes [2]) of the same compound?
A: suppression

Q: What about the “suppression of interleukin 5 (IL5)” value (THP-1 human monocytes [2]) of the same compound?
A: suppression

Q: What about the “suppression of interleukin 6 (IL6)” value (THP-1 human monocytes [2]) of the same compound?
A: suppression

Q: And the “suppression of interleukin 8 (IL8)” value (THP-1 human monocytes [2])?
A: suppression

Q: What about the “suppression of interleukin 13 (IL13)” value (THP-1 human monocytes [2]) of the same compound?
A: suppression

Q: And the “FoxP3 expression levels (induction)” value (Naïve CD4+ T human cells)?
A: 7 fold

Q: What about the “suppression … after LPS treatment” value (THP-1 human monocytes [1]) of the same compound?
A: suppression

Q: Which results are given for `Fc1cc(F)cc(-c2nc(N3CCC3)nc(-n3cccn3)n2)c1` [Compound 93, 2-(Azetidin-1-yl)-4-(3,5-difluorophenyl)-6-(1H-pyrazol-1-yl)-1,3,5-triazine]?
A: pKd (JMJD3): > 7.00; suppression of TNF-alpha (TNFA) (THP-1 human monocytes [2]): suppression; suppression of interleukin 1beta (IL1B) (THP-1 human monocytes [2]): suppression; suppression of interleukin 5 (IL5) (THP-1 human monocytes [2]): suppression; suppression of interleukin 6 (IL6) (THP-1 human monocytes [2]): suppression; suppression of interleukin 8 (IL8) (THP-1 human monocytes [2]): suppression; suppression of interleukin 13 (IL13) (THP-1 human monocytes [2]): suppression; FoxP3 expression levels (induction) (Naïve CD4+ T human cells): 7 fold; suppression of TNF-alpha (TNFA) expression after LPS treatment (THP-1 human monocytes [1]): suppression

Q: `c1ccc2c(c1)ccn2-c1nc(N2CCOCC2)nc(-n2cccn2)n1` [Compound 94, 4-(4-(1H-Indol-1-yl)-6-(1H-pyrazol-1-yl)-1,3,5-triazin-2-yl)morpholine] was tested. Which pKd (JMJD3) did it give?
A: 6.30 to 7.00

Q: What about the “suppression … after LPS treatment” value (THP-1 human monocytes [1]) of the same compound?
A: suppression

Q: With `NC(=O)CCNc1nc(-c2cc(F)cc(F)c2)nc(-n2cccn2)n1` [Compound 96, 3-((4-(3,5-Difluorophenyl)-6-(1H-pyrazol-1-yl)-1,3,5-triazin-2-yl)amino)propanamide] as the compound, how does the pKd (JMJD3) read?
A: 6.30 to 7.00

Q: `COCCCNc1nc(-n2cccn2)nc(-n2ccc3ccccc32)n1` [Compound 97, 4-(1H-Indol-1-yl)-N-(3-methoxypropyl)-6-(1H-pyrazol-1-yl)-1,3,5-triazin-2-amine] was tested. Which pKd (JMJD3) did it give?
A: 6.30 to 7.00

Q: And the “suppression … after LPS treatment” value (THP-1 human monocytes [1])?
A: suppression

Q: How did the “suppression of TNF-alpha (TNFA)” value (THP-1 human monocytes [2]) turn out when `COCNc1nc(-n2cccn2)nc(-n2ccc3ccccc32)n1` [Compound 98, 4-(1H-indol-1-yl)-N-(methoxymethyl)-6-(1H-pyrazol-1-yl)-1,3,5-triazin-2-amine] was run?
A: suppression

Q: What about the “suppression of interleukin 1beta (IL1B)” value (THP-1 human monocytes [2]) of the same compound?
A: suppression

Q: What about the “suppression of interleukin 5 (IL5)” value (THP-1 human monocytes [2]) of the same compound?
A: suppression

Q: What about the “suppression of interleukin 6 (IL6)” value (THP-1 human monocytes [2]) of the same compound?
A: suppression

Q: What about the “suppression of interleukin 8 (IL8)” value (THP-1 human monocytes [2]) of the same compound?
A: suppression

Q: And the “suppression of interleukin 13 (IL13)” value (THP-1 human monocytes [2])?
A: suppression

Q: And the “FoxP3 expression levels (induction)” value (Naïve CD4+ T human cells)?
A: 7 fold

Q: How did the “suppression of TNF-alpha (TNFA)” value (THP-1 human monocytes [2]) turn out when `Fc1cc(F)cc(-c2nc(N3CCNCC3)nc(-n3cccn3)n2)c1` [Compound 99, 2-(3,5-difluorophenyl)-4-(piperazin-1-yl)-6-(1H-pyrazol-1-yl)-1,3,5-triazine] was run?
A: suppression

Q: And the “suppression of interleukin 1beta (IL1B)” value (THP-1 human monocytes [2])?
A: suppression

Q: What about the “suppression of interleukin 5 (IL5)” value (THP-1 human monocytes [2]) of the same compound?
A: suppression

Q: And the “suppression of interleukin 6 (IL6)” value (THP-1 human monocytes [2])?
A: suppression

Q: And the “suppression of interleukin 8 (IL8)” value (THP-1 human monocytes [2])?
A: suppression

Q: And the “suppression of interleukin 13 (IL13)” value (THP-1 human monocytes [2])?
A: suppression

Q: And the “FoxP3 expression levels (induction)” value (Naïve CD4+ T human cells)?
A: 7 fold
